The target in assay [1] is T1, Prostaglandin G/H synthase 1 (Ovis aries, UniProt P05979).
T1 sequence (P05979 whole entry): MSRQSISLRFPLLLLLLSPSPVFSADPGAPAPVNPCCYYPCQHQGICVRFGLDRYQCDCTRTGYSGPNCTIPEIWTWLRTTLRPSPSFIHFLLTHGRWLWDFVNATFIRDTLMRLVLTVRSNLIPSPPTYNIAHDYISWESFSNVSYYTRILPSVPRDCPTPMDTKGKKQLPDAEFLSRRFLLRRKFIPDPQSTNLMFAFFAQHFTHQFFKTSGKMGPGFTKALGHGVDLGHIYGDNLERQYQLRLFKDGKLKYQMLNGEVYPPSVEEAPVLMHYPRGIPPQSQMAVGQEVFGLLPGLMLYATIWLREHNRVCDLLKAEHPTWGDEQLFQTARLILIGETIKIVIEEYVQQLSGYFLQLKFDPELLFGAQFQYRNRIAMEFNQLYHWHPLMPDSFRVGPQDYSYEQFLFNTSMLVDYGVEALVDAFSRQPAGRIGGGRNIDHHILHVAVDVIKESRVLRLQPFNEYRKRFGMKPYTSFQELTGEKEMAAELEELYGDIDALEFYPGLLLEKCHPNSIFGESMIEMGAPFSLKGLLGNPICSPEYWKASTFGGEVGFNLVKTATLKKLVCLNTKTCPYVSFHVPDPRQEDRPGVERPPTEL
As to the kind of experiment: Inhibition of sheep COX1-mediated PGE2 production after 2 mins by liquid scintillation counting.

In assay [2] the target is T2, Prostaglandin G/H synthase 2 (Ovis aries, UniProt P79208).
T2 sequence (P79208 whole entry): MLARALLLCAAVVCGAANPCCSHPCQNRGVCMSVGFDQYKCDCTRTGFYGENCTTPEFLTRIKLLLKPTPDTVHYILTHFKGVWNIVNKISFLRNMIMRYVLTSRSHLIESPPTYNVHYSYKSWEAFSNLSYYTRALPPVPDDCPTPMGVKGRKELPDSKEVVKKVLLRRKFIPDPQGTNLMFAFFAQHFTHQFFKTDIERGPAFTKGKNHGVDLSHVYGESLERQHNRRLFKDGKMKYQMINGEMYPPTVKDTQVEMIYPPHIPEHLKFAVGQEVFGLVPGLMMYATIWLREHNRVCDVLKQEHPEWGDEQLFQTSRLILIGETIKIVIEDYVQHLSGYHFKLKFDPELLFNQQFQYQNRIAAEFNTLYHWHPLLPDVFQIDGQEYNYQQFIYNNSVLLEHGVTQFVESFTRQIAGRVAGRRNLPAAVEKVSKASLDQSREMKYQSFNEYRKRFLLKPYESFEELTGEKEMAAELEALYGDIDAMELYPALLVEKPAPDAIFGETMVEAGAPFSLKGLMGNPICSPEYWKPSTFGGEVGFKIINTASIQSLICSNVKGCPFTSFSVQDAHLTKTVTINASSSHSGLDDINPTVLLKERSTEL
Put plainly: Inhibition of sheep COX2-mediated PGE2 production after 2 mins by liquid scintillation counting.

Among the data in ChEMBL document CHEMBL1629512, “Ipomotaosides A-D, resin glycosides from the aerial parts of Ipomoea batatas and their inhibitory activity against COX-1 and COX-2” (J Nat Prod, 2010) are IC50 values, retold here.

Each structure is given as a SMILES string.

`CCCCCCCCCCCC(=O)O[C@@H]1[C@@H](O)[C@@H](OC(=O)/C=C/c2ccccc2)[C@H](O[C@@H]2[C@@H](OC(=O)CCCCCCCCC)[C@@H](O)[C@H](O[C@@H]3[C@@H](O)[C@H]4OC(=O)CCCCCCCCC[C@H](CCCCC)O[C@@H]5O[C@H](C)[C@H](O)[C@H](O)[C@H]5O[C@@H]4O[C@H]3C)O[C@H]2C)O[C@H]1C` [IPOMOTAOSIDE A]: the IC50 worked out at 9.3 µM in assay [1] (read-out: IC50) and 14.5 µM in assay [2] (read-out: IC50).

Take `CCCCCCCCCCCC(=O)O[C@@H]1[C@@H](O)[C@@H](OC(=O)/C=C/c2ccccc2)[C@H](O[C@@H]2[C@@H](O)[C@@H](OC(=O)CCCCCCCCCCC)[C@H](O[C@@H]3[C@@H](O)[C@H]4OC(=O)CCCCCCCCC[C@H](CCCCC)O[C@@H]5O[C@H](C)[C@H](O)[C@H](O)[C@H]5O[C@@H]4O[C@H]3C)O[C@H]2C)O[C@H]1C` [IPOMOTAOSIDE B]: the concentration for half-maximal inhibition (IC50) turned out to be 132 µM in assay [1] (read-out: IC50) and 147 µM in assay [2] (read-out: IC50).

Take `CCCCCCCCCCCC(=O)O[C@@H]1[C@@H](O)[C@@H](OC(=O)/C=C/c2ccccc2)[C@H](O[C@@H]2[C@@H](O)[C@@H](OC(=O)CCCCCCCCC)[C@H](O[C@@H]3[C@H]4OC(=O)CCCCCCCCC[C@H](CCCCC)O[C@@H]5O[C@H](C)[C@H](O)[C@H](O)[C@H]5O[C@H](O[C@H]3C)[C@@H]4O)O[C@H]2C)O[C@H]1C` [IPOMOTAOSIDE C]: the IC50 result in assay [1] and in assay [2] was “Not Active” in each case.

Turning to `CCCCCCCCCCCC(=O)O[C@@H]1[C@@H](O)[C@@H](OC(=O)/C=C/c2ccccc2)[C@H](O[C@@H]2[C@@H](OC(=O)CCCCCCCCC)[C@@H](O)[C@H](O[C@@H]3[C@H]4OC(=O)CCCCCCCCC[C@H](CCCCC)O[C@@H]5O[C@H](C)[C@H](O)[C@H](O)[C@H]5O[C@H](O[C@H]3C)[C@@H]4O)O[C@H]2C)O[C@H]1C` [IPOMOTAOSIDE D], the IC50 entry in assay [1] and in assay [2] was “Not Active” in each case.
